Results on four compounds are retold here after patent US10533000B2, “Metabotrophic glutamate receptor 5 modulators and methods of use thereof” (Sunovion Pharmaceuticals, Inc., priority 2011, dated 2020).

mGluR5, sequence (P41594 21-1212): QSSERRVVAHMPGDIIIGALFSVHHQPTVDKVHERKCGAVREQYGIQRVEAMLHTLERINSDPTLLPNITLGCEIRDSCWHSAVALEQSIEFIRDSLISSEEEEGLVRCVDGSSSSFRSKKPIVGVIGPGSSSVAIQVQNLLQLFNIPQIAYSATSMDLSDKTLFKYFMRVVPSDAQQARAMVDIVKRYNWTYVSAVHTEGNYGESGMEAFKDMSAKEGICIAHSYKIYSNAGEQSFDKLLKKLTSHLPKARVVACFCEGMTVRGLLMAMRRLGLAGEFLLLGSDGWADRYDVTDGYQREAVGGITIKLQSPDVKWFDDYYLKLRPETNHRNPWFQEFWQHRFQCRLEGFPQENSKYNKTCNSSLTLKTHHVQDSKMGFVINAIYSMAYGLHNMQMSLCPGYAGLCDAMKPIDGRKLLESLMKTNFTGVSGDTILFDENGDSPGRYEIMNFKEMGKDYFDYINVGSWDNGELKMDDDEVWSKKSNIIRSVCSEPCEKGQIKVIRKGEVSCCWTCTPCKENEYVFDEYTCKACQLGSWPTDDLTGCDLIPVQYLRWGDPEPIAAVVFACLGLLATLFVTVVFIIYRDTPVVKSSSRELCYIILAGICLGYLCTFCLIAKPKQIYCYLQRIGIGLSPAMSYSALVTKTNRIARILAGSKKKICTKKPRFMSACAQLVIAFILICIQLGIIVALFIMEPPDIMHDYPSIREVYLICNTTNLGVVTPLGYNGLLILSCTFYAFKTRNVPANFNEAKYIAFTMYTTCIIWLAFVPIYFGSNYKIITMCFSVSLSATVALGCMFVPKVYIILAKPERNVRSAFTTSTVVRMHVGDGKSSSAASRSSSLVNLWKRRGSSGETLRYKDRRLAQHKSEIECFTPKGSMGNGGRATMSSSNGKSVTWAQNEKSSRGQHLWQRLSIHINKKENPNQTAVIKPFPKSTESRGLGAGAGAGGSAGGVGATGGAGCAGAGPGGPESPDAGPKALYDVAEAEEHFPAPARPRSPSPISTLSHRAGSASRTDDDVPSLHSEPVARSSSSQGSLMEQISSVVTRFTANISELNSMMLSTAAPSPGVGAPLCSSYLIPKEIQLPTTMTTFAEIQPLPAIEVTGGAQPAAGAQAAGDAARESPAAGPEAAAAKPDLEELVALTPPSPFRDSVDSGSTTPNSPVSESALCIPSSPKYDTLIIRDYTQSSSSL

The test addresses mGluR5 (Homo sapiens, UniProt P41594). The test is described as follows: mGluR5 positive allosteric modulator (PAM) functional assay. It is filed as cell-based.
Compound `Fc1cccc(C#Cc2ccc(-c3noc(C4CCCC4)n3)cc2)c1` [Compound 32, 5-cyclopentyl-3-(4-((3-fluorophenyl)ethynyl)phenyl)-1,2,4-oxadiazole] registered an EC50 of 100 to 300 nM.
Regarding `CCC(NC1CC1)c1nc(-c2ccc(C#Cc3cccc(F)c3)cn2)no1` (stereo not shown) [Compound 117, N-(1-(3-(5-((3-fluorophenyl)ethynyl)pyridin-2-yl)-1,2,4-oxadiazol-5-yl)propyl)cyclopropanamine], the EC50 is not above 30 nM.
With `CC(c1nc(-c2ccc(C#Cc3ccccn3)cn2)no1)N(C)C` (stereo not shown) [Compound 143, N,N-dimethyl-1-(3-(5-(pyridin-2-ylethynyl)pyridin-2-yl)-1,2,4-oxadiazol-5-yl)ethanamine] the figure was 100 to 300 nM.
As for `COC(C)c1nc(-c2ccc(C#Cc3cccc(F)c3)nc2)no1` (stereo not shown) [Compound 84, 3-(6-((3-fluorophenyl)ethynyl)pyridin-3-yl)-5-(1-methoxyethyl)-1,2,4-oxadiazole], the EC50 lay in the range of 30 to 100 nM.
